{"source": "patent EP2433619A1", "about": "“Novel antitumoral agent and its therapeutic uses” (Intsel Chimos, priority 2010, dated 2012)", "key": {"[1]": {"test_system": "rat brain C6 glioblastoma cells", "assay": "intratumoral injection of liposomes in rats with intracerebral implantation of C6 glial cells (earlier studies)", "assay_type": "in vivo", "conditions": "compared with animals treated with liposomes only", "source_text": "The effect of 7-β-hydroxy cholesteryl-3-β-oleate-ester on rat brain C6 glioblastoma cells was studied (Werthle M & All).\nThe ester of 7-β-hydroxy-cholesterol, the 7-β-hydroxy cholesteryl-3-β-oleate-ester (7-β-OHCOE) belongs to the oxysterols."}, "[2]": {"design": "species or system rats and mice", "conditions": "in vivo"}, "[3]": {"assay": "stability of Oxysterol solution to autoclave sterilisation", "assay_type": "physicochemical", "description": "A solution of 5 mg Oxysterol in 5 ml of a mixture Acetonitrile / isopropanol (44/56 v/v) is prepared then sterilized in the autoclave for 20 min at 121°C. The solution is analysed according to a […] method of oxysterol before and after autoclaving. The solution of oxysterol is subjected to a second autoclaving for 30minutes at 121°C. The areas of the peaks of oxysterol are determined and the yield after autoclaving is calculated in the following manner Yield: Area of oxysterol after autoclaving; Area of oxysterol before autoclaving x 100 [formula]"}, "[4]": {"assay": "stability of active principle in the finished product to autoclaving", "assay_type": "physicochemical", "conditions": "for Content in oxysterol: samples PE1-PE3, listed as oxysterol", "description": "A batch has been subjected to a dosage before and after autoclaving 20 minutes at 121 °C, to determine whether oxysterol also resists to autoclaving. Three samples have been analysed :\nThe autoclaving yield is calculated in the following manner Yield autoclaving: Content oxysterol after autoclaving; Content oxysterol before autoclaving x 100 [formula]"}, "glioma C6 Cells": {"test_system": "glioma C6 Cells", "assay": "single stereotactic cerebral intra-ventricular injection in rats implanted with glioma C6 cells", "assay_type": "in vivo"}, "[5]": {"test_system": "Advanced glioblastoma, Grade III o IV astrocytoma, Anaplastic oligodendroglioma", "assay": "compassionate clinical trial, stereotactic administration of liposomal form", "assay_type": "in vivo, patients", "conditions": "1 to 3 doses, total 0.05 to 3.2mg/patient"}, "[6]": {"test_system": "rat brain C6 glioblastoma cells", "conditions": "injection of liposomes containing the ester vs liposomes without oxysterol (Werthle M & All); cited from earlier work"}, "tumour astrocyte lines": {"test_system": "tumour astrocyte lines", "conditions": "lines from primary cultures of astrocytes of newborn rat brain; cited from earlier work"}, "[7]": {"conditions": "2 autoclavings, second for 30 minutes at 121°C"}, "[8]": {"conditions": "after autoclaving 20 minutes at 121 °C"}}, "note": "Values joined by “and” are separate entries in the source; they are usually repeats but may differ in a detail not shown here. Equal values may be shown once. “Also recorded” adds a separate entry of the source.", "data": [{"smiles": "CCCCCCCC/C=C\\CCCCCCCC(=O)O[C@H]1CC[C@@]2(C)C(=C[C@H](O)[C@H]3[C@@H]4CC[C@H]([C@H](C)CCCC(C)C)[C@@]4(C)CC[C@@H]32)C1", "note": "[7-β-OHCOE, 7-β-hydroxy cholesteryl-3-β-oleate-ester]", "values": [{"measurement": "tumor growth", "setting": "[1]", "result": "significant regression of tumor growth; also recorded: spectacular regression of tumour growth"}, {"measurement": "metabolism", "setting": "[2]", "result": "metabolized to cholesterol within the cerebral parenchyma"}, {"measurement": "noxious effects", "setting": "[2]", "result": "no noxious effects"}, {"measurement": "Area oxysterol after autoclaving", "setting": "[3]; 1 autoclaving, 20 min at 121°C", "result": "5517,4"}, {"measurement": "Yield of autoclaving", "setting": "[3]; 1 autoclaving, 20 min at 121°C", "result": "100,2%"}, {"measurement": "Area oxysterol before autoclaving", "setting": "[3]; 1 autoclaving, 5 mg in 5 ml Acetonitrile / isopropanol (44/56 v/v)", "result": "5506,5"}, {"measurement": "Area oxysterol before autoclaving", "setting": "[3]; 2 autoclavings", "result": "5666,1"}, {"measurement": "Area oxysterol after autoclaving", "setting": "[3]; [7]", "result": "5716,3"}, {"measurement": "Yield of autoclaving", "setting": "[3]; [7]", "result": "100,9%"}, {"measurement": "Content in oxysterol, Average", "setting": "[4]; [8]", "result": "1,43 mg/g"}, {"measurement": "Content in oxysterol", "setting": "[4]; [8]", "result": "1,42 mg/g and 1,41 mg/g and 1,45 mg/g"}, {"measurement": "average yield of autoclaving", "setting": "[4]; autoclaving 20 minutes at 121 °C", "result": "97,9%"}, {"measurement": "Content in oxysterol, Average", "setting": "[4]; before autoclaving", "result": "1,46 mg/g"}, {"measurement": "Content in oxysterol", "setting": "[4]; before autoclaving", "result": "1,45 mg/g and 1,46 mg/g"}, {"measurement": "survival", "setting": "glioma C6 Cells; injection of liposomal form in experimental animals", "result": "did affect neither survival nor body weight"}, {"measurement": "total tumoral volume, mean value", "setting": "glioma C6 Cells; liposomal, injected 3 days after implantation, sacrificed 10 days after treatment, reduced from 4.4mm3", "result": 0.8, "unit": "mm3"}, {"measurement": "body weight", "setting": "glioma C6 Cells; rat, in vivo", "result": "did affect neither survival nor body weight"}, {"measurement": "partial or total remission observed", "setting": "[5]; 11 patients included", "result": 3, "unit": "patients"}, {"measurement": "side effects", "setting": "[5]; 11 patients", "result": "No significant side effects were observed"}, {"measurement": "tumor volume", "setting": "[6]", "result": "marked decrease in tumor volume"}]}, {"smiles": "CC(C)CCC[C@@H](C)[C@H]1CC[C@H]2[C@@H]3[C@@H](O)C=C4C[C@@H](O)CC[C@]4(C)[C@H]3CC[C@]12C", "note": "[7-β-OH-CH, 7 beta-hydroxy-cholesterol]", "values": [{"measurement": "lethal effect / cytotoxicity", "setting": "tumour astrocyte lines", "result": "lethal effect"}]}]}
